Source: patent US20260317324A1, “BIFUNCTIONAL COMPOUNDS FOR DEGRADING BRAF VIA UBIQUITIN PROTEOSOME PATHWAY” (Nurix Therapeutics, Inc., priority 2023, published 2026)

Experiments:
Assay type in all cases: cell-based
[1] = molecular target: T1, BRAF D594G (Homo sapiens, UniProt P15056, D594G); experiment: BRAF HiBiT degradation assay, C-terminal HiBiT-tagged BRAF D594G overexpressed in HCT-116 BRAF−/− cells (clone 63), Nano-Glo HiBiT Lytic assay
T1 construct: Horizon Discovery (HCT-116 BRAF−/− cells); host or cells: HCT-116 BRAF−/− cells, clone 63, lentiviral transduction
T1 sequence (P15056 whole entry D594G): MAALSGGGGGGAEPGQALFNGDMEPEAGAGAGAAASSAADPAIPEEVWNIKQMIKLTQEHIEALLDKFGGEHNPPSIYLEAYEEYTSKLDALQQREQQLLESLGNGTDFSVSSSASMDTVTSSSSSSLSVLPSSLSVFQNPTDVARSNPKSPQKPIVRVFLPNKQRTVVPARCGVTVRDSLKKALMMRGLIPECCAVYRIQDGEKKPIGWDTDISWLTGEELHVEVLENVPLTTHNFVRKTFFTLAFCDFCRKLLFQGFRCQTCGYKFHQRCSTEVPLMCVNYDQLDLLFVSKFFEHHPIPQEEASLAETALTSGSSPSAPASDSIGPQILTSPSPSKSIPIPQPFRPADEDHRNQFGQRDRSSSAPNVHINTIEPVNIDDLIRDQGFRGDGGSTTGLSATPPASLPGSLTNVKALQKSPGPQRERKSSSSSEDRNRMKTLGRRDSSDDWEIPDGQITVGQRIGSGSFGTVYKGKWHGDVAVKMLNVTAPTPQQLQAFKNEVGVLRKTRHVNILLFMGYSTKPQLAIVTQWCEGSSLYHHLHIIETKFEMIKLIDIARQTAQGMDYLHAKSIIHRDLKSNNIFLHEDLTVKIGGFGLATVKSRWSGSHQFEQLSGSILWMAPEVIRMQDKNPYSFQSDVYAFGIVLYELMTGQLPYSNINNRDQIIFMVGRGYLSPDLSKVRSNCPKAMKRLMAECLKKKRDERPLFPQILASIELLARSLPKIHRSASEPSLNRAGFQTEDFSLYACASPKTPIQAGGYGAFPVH
How it was run: (§1)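 We quantified degradation of the C-terminally HiBiT-tagged, overexpressed mutant by lytic luminescence, normalizing to DMSO-treated cells with wild-type HCT-116 background subtracted. Dose series ran from 1 μM to 0.01 nM at 0.2% DMSO. Observed Dmax is % degraded at maximal effect.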

[2] = molecular target: T2, BRAF G469A (Homo sapiens, UniProt P15056, G469A); experiment: BRAF HiBiT degradation assay, C-terminal HiBiT-tagged BRAF G469A overexpressed in HCT-116 BRAF−/− cells (clone 34), Nano-Glo HiBiT Lytic assay
T2 construct: Horizon Discovery (HCT-116 BRAF−/− cells); host or cells: HCT-116 BRAF−/− cells, clone 34, lentiviral transduction
T2 sequence (P15056 whole entry G469A): as the sequence (P15056 whole entry D594G) above, with G469A, G594D counted along it
How it was run: as §1

[3] = molecular target: T3, BRAF G466V (Homo sapiens, UniProt P15056, G466V); experiment: BRAF HiBiT degradation assay, C-terminal HiBiT-tagged BRAF G466V overexpressed in HCT-116 BRAF−/− cells (clone 8), Nano-Glo HiBiT Lytic assay
T3 construct: Horizon Discovery (HCT-116 BRAF−/− cells); host or cells: HCT-116 BRAF−/− cells, clone 8, lentiviral transduction
T3 sequence (P15056 whole entry G466V): as the sequence (P15056 whole entry D594G) above, with G466V, G594D counted along it
How it was run: as §1

[4] = molecular target: T4, BRAF V600E (Homo sapiens, UniProt P15056, V600E); experiment: BRAF HiBiT degradation assay, C-terminal HiBiT-tagged BRAF V600E A375 cells (clone 1F10), Nano-Glo HiBiT Lytic assay; details: for Dmax: A-375
T4 construct: endogenous C-terminal HiBiT fusion tag on BRAF V600E allele; endogenous in cells; host or cells: A375 clone 1F10 (CRISPR-Cas9 knock-in of the HiBiT tag; parental A375 from ATCC)
T4 sequence (P15056 whole entry V600E, the tested form may be a part): as the sequence (P15056 whole entry D594G) above, with G594D, V600E counted along it
How it was run: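 Steps: seed HiBiT-tagged A375 clone 1F10 cells; incubate 24 h, 37 °C, 5% CO2; add compound (11 half-log points from 1 μM, 0.2% DMSO); lyse with HiBiT detection reagent plus LgBiT for 10 min; read luminescence; fit % protein remaining against concentration.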

[5] = BRAF D594G (Class 3), HCT-116 BRAF−/− cells, DC50 at 50% degradation
[6] = BRAF D594G (Class 3), HCT-116 BRAF−/− cells, observed Dmax relative to DMSO control
[7] = BRAF G469A (Class 2), HCT-116 BRAF−/− cells, DC50 at 50% degradation
[8] = BRAF G469A (Class 2), HCT-116 BRAF−/− cells, observed Dmax relative to DMSO control
[9] = BRAF G466V (Class 3), HCT-116 BRAF−/− cells, DC50 at 50% degradation
[10] = BRAF G466V (Class 3), HCT-116 BRAF−/− cells, observed Dmax relative to DMSO control
[11] = A375 (BRAF V600E, Class 1), DC50 at 50% degradation
[12] = A375 (BRAF V600E, Class 1), observed Dmax, % protein degraded relative to DMSO control
[13] = BRAF D594G, DC50 at 50%: fitted conc. at Y=50
[14] = HCT-116, BRAF D594G, percentage protein degraded at maximal compound effect relative to DMSO
[15] = Class 2, BRAF G469A, DC50 at 50%: fitted conc. at Y=50
[16] = HCT-116, Class 2, BRAF G469A, percentage protein degraded at maximal compound effect relative to DMSO
[17] = BRAF G466V, DC50 at 50%: fitted conc. at Y=50
[18] = HCT-116, BRAF G466V, percentage protein degraded at maximal compound effect relative to DMSO
[19] = A375 (BRAF V600E), DC50 at 50%: fitted conc. at Y=50
[20] = A375 (BRAF V600E), percentage protein degraded at maximal compound effect relative to DMSO

SMILES | DC50 [1, 5] [nM] | Dmax [1, 6] [%] | DC50 [2, 7] [nM] | Dmax [2, 8] [%] | DC50 [3, 9] [nM] | Dmax [3, 10] [%] | DC50 [4, 11] [nM] | Dmax [4, 12] [%] | DC50 [1, 13] [nM] | Dmax [1, 14] [%] | DC50 [2, 15] [nM] | Dmax [2, 16] [%] | DC50 [3, 17] [nM] | Dmax [3, 18] [%] | DC50 [4, 19] [nM] | Dmax [4, 20] [%]
CCCS(=O)(=O)Nc1cc(Cl)cc(-c2cn(-c3ccc(N4CCN(CC5CCN(c6ccc(N7CCC(=O)NC7=O)cc6)CC5)[C@@H](C)C4)cc3)nc2-c2ccncc2)c1F [Compound 280, N-[5-chloro-3-(1-{4-[(3S)-4-({1-[4-(2,4-dioxo-1,3-diazinan-1-yl)phenyl]piperidin-4-yl}methyl)-3-methylpiperazin-1-yl]phenyl}-3-(pyridin-4-yl)-1H-pyrazol-4-yl)-2-fluorophenyl]propane-1-sulfonamide] | > 500 | < 30 | > 500 | < 30 | > 500 | 30 to 70 | 10 to 50 | > 70 |  |  |  |  |  |  |  | 
CCCS(=O)(=O)Nc1cccc(-c2nc(C(C)(C)C)sc2-c2ccnc(Nc3cccc(OC4CCN(C(=O)CN5CCC(c6ccc(NC7CCC(=O)NC7=O)cc6)CC5)CC4)c3)n2)c1F (racemic) [Compound 96, Rac-N-(3-{2-tert-butyl-5-[2-({3-[(1-{2-[4-(4-{[(3R)-2,6-dioxopiperidin-3-yl]amino}phenyl)piperidin-1-yl]acetyl}piperidin-4-yl)oxy]phenyl}amino)pyrimidin-4-yl]-1,3-thiazol-4-yl}-2-fluorophenyl)propane-1-sulfonamide] |  |  |  |  |  |  |  |  | > 500 | 30 to 70 | > 500 | 30 to 70 | > 500 | 30 to 70 | 10 to 50 | > 70
O=C1CCC(c2ccc(N3CCC(CN4CCN(c5ccc(-n6cc(-c7cc(Cl)cc(NS(=O)(=O)N8CCCC8)c7F)c(-c7ccncc7)n6)nc5)CC4)CC3)nc2)C(=O)N1 (racemic) [Compound 288, Rac-N-{5-chloro-3-[1-(5-{4-[(1-{5-[(3R)-2,6-dioxopiperidin-3-yl]pyridin-2-yl}piperidin-4-yl)methyl]piperazin-1-yl}pyridin-2-yl)-3-(pyridin-4-yl)-1H-pyrazol-4-yl]-2-fluorophenyl}pyrrolidine-1-sulfonamide] | < 10 | > 70 | < 10 | > 70 | < 10 | > 70 | < 10 | > 70 |  |  |  |  |  |  |  | 
CCCS(=O)(=O)Nc1cccc(-c2nc(C(C)(C)C)sc2-c2ccnc(Nc3ccc(N4CCN(C(=O)CN5CCc6cc(C7CCC(=O)NC7=O)ccc6C5)CC4)c(F)c3)n2)c1F (racemic) [Compound 51, Rac-N-(3-{2-tert-butyl-5-[2-({4-[4-(2-{6-[(3R)-2,6-dioxopiperidin-3-yl]-1,2,3,4-tetrahydroisoquinolin-2-yl}acetyl)piperazin-1-yl]-3-fluorophenyl}amino)pyrimidin-4-yl]-1,3-thiazol-4-yl}-2-fluorophenyl)propane-1-sulfonamide] |  |  |  |  |  |  |  |  | 50 to 500 | 30 to 70 | > 500 | 30 to 70 | 50 to 500 | 30 to 70 | < 10 | > 70
O=C1CC[C@H](c2ccc(N3CCC(CN4CCN(c5ccc(-n6cc(-c7cc(Cl)cc(NS(=O)(=O)N8CC[C@@H](F)C8)c7F)c(-c7ccncc7)n6)nc5)CC4)CC3)cc2)C(=O)N1 [Compound 294, (3R)—N-{5-chloro-3-[1-(5-{4-[(1-{4-[(3R)-2,6-dioxopiperidin-3-yl]phenyl}piperidin-4-yl)methyl]piperazin-1-yl}pyridin-2-yl)-3-(pyridin-4-yl)-1H-pyrazol-4-yl]-2-fluorophenyl}-3-fluoropyrrolidine-1-sulfonamide] | < 10 | > 70 | < 10 | > 70 | < 10 | > 70 | < 10 | > 70 |  |  |  |  |  |  |  | 
O=C1CCN(c2ccc(N3CCC(CN4CCN(c5ccc(-n6cc(-c7cc(Cl)cc(NS(=O)(=O)C8CCCC8)c7F)c(-c7ccncc7)n6)cc5)CC4)CC3)nc2)C(=O)N1 [Compound 388, N-[5-chloro-3-(1-{4-[4-({1-[5-(2,4-dioxo-1,3-diazinan-1-yl)pyridin-2-yl]piperidin-4-yl}methyl)piperazin-1-yl]phenyl}-3-(pyridin-4-yl)-1H-pyrazol-4-yl)-2-fluorophenyl]cyclopentanesulfonamide] | < 10 | 30 to 70 | 10 to 50 | 30 to 70 | < 10 | > 70 | < 10 | > 70 |  |  |  |  |  |  |  | 
O=C1CC[C@H](c2ccc(N3CCC(CN4CCN(c5ccc(-n6cc(-c7cc(Cl)cc(NS(=O)(=O)N8CC[C@@H](F)C8)c7F)c(-c7ccncc7)n6)c(F)c5)CC4)CC3)nc2)C(=O)N1 [Compound 334, (3R)—N-{5-chloro-3-[1-(4-{4-[(1-{5-[(3R)-2,6-dioxopiperidin-3-yl]pyridin-2-yl}piperidin-4-yl)methyl]piperazin-1-yl}-2-fluorophenyl)-3-(pyridin-4-yl)-1H-pyrazol-4-yl]-2-fluorophenyl}-3-fluoropyrrolidine-1-sulfonamide] | < 10 | > 70 | 10 to 50 | > 70 | < 10 | > 70 | < 10 | > 70 |  |  |  |  |  |  |  | 
CCCS(=O)(=O)Nc1cccc(-c2nc(C(C)(C)C)sc2-c2ccnc(N[C@H]3CC[C@@H](N4CCN(C(=O)C5CCN(c6ccc(C7CCC(=O)NC7=O)cn6)CC5)CC4)CC3)n2)c1F (mixture of isomers) [Compound 138, N-{3-[2-tert-butyl-5-(2-{[(1s,4s)-4-[4-(1-{5-[(3RS)-2,6-dioxopiperidin-3-yl]pyridin-2-yl}piperidine-4-carbonyl)piperazin-1-yl]cyclohexyl]amino}pyrimidin-4-yl)-1,3-thiazol-4-yl]-2-fluorophenyl}propane-1-sulfonamide] |  |  |  |  |  |  |  |  | 10 to 50 | 30 to 70 | < 10 | 30 to 70 | < 10 | 30 to 70 | < 10 | > 70
O=C1CCN(c2ccc(N3CCC(CN4CCN(c5ccc(-n6cc(-c7cc(Cl)cc(NS(=O)(=O)N8CCCC8)c7F)c(-c7ccncc7)n6)c(F)c5)CC4)CC3)nc2)C(=O)N1 [Compound 370, N-[5-chloro-3-(1-{4-[4-({1-[5-(2,4-dioxo-1,3-diazinan-1-yl)pyridin-2-yl]piperidin-4-yl}methyl)piperazin-1-yl]-2-fluorophenyl}-3-(pyridin-4-yl)-1H-pyrazol-4-yl)-2-fluorophenyl]pyrrolidine-1-sulfonamide] | < 10 | 30 to 70 | > 500 | 30 to 70 | < 10 | 30 to 70 | < 10 | > 70 |  |  |  |  |  |  |  | 
CCCS(=O)(=O)Nc1cccc(-c2nc(C(C)(C)C)sc2-c2ccnc(Nc3ccc4c(c3)CCN(CC3CCN(c5ccc6c(=O)n(C7CCC(=O)NC7=O)ccc6c5)CC3)C4)n2)c1F (racemic) [Compound 85, Rac-N-(3-{2-tert-butyl-5-[2-({2-[(1-{2-[(3R)-2,6-dioxopiperidin-3-yl]-1-oxo-1,2-dihydroisoquinolin-6-yl}piperidin-4-yl)methyl]-1,2,3,4-tetrahydroisoquinolin-6-yl}amino)pyrimidin-4-yl]-1,3-thiazol-4-yl}-2-fluorophenyl)propane-1-sulfonamide] |  |  |  |  |  |  |  |  | > 500 | 30 to 70 | > 500 | < 30 | > 500 | 30 to 70 | 10 to 50 | 30 to 70
